Measurements published in ChEMBL document CHEMBL1145308 (Bioorg Med Chem Lett, 2006).

Tests used:
in vitro [1] = conditions: mouse, microsomes, Max Achievable Bioavailability
Description: Maximum achievable bioavailability in mouse microsome

in vitro [2] = conditions: mouse, microsomes, CL
Description: Intrinsic clearance in mouse microsome

in vitro [3] = conditions: human, microsomes, Max Achievable Bioavailability
Description: Maximum achievable bioavailability in human microsome

in vitro [4] = conditions: human, microsomes, CL
Description: Intrinsic clearance in human microsome

[5] = molecular target: T1, Sodium- and chloride-dependent glycine transporter 2 (Homo sapiens, UniProt Q9Y345); assay: (§1) Inhibition of [3H]glycine uptake at GlyT2
T1 sequence (Q9Y345 whole entry): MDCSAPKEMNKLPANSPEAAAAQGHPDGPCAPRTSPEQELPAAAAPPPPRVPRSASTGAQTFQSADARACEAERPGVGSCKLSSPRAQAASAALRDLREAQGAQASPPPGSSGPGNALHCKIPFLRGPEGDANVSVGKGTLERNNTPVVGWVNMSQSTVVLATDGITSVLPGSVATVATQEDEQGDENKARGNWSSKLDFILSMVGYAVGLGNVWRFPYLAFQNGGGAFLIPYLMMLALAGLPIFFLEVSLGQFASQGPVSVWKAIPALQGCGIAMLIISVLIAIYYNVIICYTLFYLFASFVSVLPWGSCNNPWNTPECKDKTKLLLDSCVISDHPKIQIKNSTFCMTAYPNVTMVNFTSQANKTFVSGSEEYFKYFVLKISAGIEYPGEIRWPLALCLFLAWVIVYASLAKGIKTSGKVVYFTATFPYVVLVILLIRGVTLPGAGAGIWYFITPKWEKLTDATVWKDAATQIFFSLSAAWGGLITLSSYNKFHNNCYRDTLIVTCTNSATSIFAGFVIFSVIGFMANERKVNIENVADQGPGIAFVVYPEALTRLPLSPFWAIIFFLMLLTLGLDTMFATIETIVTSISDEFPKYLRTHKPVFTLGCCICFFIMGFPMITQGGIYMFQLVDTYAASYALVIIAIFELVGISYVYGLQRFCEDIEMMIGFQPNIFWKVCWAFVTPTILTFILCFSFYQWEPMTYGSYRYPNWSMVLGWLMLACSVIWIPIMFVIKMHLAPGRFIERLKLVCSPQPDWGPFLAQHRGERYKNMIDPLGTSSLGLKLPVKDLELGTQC

[6] = molecular target: T2, Sodium- and chloride-dependent glycine transporter 1 (Homo sapiens, UniProt P48067); assay: (§2) Inhibition of [3H]glycine uptake at GlyT1
T2 sequence (P48067 whole entry): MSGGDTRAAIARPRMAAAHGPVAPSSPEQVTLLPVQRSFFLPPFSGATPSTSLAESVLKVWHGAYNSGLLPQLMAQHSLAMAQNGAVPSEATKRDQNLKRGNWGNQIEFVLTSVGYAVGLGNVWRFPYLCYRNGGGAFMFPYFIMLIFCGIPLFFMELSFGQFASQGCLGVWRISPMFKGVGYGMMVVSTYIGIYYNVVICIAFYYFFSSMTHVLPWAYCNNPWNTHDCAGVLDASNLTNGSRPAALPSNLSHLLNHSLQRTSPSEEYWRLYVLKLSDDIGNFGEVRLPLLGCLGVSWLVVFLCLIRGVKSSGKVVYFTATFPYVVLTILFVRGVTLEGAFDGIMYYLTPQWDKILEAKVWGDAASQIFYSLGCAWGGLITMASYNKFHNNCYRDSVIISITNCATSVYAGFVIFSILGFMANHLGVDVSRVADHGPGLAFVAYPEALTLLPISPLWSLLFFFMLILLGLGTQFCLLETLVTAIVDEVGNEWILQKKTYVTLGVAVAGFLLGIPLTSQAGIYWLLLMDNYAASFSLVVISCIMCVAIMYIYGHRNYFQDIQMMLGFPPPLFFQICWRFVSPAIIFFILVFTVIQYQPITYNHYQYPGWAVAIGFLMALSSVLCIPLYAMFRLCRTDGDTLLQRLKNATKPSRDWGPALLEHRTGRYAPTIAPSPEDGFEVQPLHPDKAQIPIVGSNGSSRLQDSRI

[7] = Dissociation constant, pKa of the compound; type: physicochemical
[8] = molecular target: Voltage-gated inwardly rectifying potassium channel KCNH2 (Homo sapiens, UniProt Q12809)
Sequence of Voltage-gated inwardly rectifying potassium channel KCNH2 (Q12809 whole entry): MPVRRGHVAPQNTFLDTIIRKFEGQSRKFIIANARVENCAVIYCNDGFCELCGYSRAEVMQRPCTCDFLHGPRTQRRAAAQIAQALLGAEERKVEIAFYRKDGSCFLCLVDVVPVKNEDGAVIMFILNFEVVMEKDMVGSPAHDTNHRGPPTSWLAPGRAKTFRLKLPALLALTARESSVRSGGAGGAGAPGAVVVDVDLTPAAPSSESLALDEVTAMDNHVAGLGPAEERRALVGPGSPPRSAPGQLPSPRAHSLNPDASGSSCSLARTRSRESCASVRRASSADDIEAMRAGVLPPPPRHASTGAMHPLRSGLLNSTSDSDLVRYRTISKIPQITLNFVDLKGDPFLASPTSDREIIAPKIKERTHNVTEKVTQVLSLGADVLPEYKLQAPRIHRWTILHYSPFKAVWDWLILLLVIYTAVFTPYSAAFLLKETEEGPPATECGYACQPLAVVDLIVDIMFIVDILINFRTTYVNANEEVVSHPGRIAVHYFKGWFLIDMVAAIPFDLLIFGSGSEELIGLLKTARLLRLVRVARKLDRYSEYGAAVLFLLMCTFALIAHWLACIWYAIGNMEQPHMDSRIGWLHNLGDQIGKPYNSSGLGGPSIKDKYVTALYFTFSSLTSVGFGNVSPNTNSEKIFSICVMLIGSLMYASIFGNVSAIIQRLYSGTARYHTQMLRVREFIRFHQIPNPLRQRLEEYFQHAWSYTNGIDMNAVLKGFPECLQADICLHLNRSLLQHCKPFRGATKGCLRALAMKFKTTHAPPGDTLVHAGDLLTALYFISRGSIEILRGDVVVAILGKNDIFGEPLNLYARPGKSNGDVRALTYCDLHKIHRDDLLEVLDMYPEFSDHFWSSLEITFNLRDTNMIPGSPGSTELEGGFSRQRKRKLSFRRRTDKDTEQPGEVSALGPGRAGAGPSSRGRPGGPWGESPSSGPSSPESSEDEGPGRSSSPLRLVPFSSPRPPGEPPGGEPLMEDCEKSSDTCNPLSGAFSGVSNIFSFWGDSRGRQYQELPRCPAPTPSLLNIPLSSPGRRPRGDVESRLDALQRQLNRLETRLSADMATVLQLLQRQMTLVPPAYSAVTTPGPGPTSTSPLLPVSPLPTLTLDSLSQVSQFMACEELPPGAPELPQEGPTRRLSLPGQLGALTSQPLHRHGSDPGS
Description: Inhibition of hERG potassium channel expressed in CHO cells by whole cell patch clamp method

[9] = molecular target: T3, Sodium- and chloride-dependent glycine transporter 1 (Homo sapiens) (UniProt P48067); assay: as §2
T3 sequence (whole entry): T2 sequence (P48067 whole entry)

[10] = molecular target: T4, Sodium- and chloride-dependent glycine transporter 2 (Homo sapiens) (UniProt Q9Y345); assay: as §1
T4 sequence (whole entry): T1 sequence (Q9Y345 whole entry)

[11] = Oral bioavailability in mouse; type: ADME, organism-based; conditions: in vivo
[12] = Half life in mouse; type: ADME, organism-based; conditions: in vivo
[13] = Volume of distribution in mouse; type: ADME, organism-based; conditions: in vivo, read-out: Vss
[14] = Clearance in mouse; type: ADME, organism-based; conditions: in vivo
[15] = Ratio of drug level in brain against plasma in mouse; type: ADME, organism-based; conditions: read-out: BPR

O=C1NCN(c2ccccc2)C12CCN(C1(c3ccccc3)CCCCC1)CC2 gave a Fh (in vitro [1]) of 6%, a microsomal CLint (in vitro [2]) of 470 µL/min/mg and a Fh (in vitro [3]) of 16%. For the same compound, the microsomal CLint (in vitro [4]) was 82 µL/min/mg and the EC50 [5] was > 30 µM.

For O=C1NCC(c2ccccc2)C12CCN(C1(c3ccccc3)CCCOC1)CC2 (stereo not given), the EC50 [6] was 1.42 µM, the pKa [7] was 7.1 and the IC50 [8] was > 11 µM.

For O=C1NCC(c2ccccc2)C12CCN(C1(c3ccccc3)CCOCC1)CC2 (stereo not given), the pKa [7] was 7.71.

With O=C1NCC(c2ccc(F)cc2)C12CCN(C1(c3ccc(F)cc3)CCCCCC1)CC2 (stereo not given) the Activity [9] was 245 nM and the Activity [10] was > 30 µM.

For O=C1NCC(c2ccc(F)cc2)C12CCN(C1(c3ccc(F)cc3)CCCCC1)CC2 (stereo in doubt), the bioavailability [11] was 60%, the Fh (in vitro [1]) was 98% and the half-life [12] was 2.8 h. It also gave a Vd [13] of 7.6 L/kg, a clearance [14] of 35 mL/min/kg and a pKa [7] of 8.75. For the same compound, the Kp [15] was 3, the Fh (in vitro [3]) was 84% and the EC50 [5] was > 30 µM.
